These results are taken from US20240158348A1, “HERBICIDAL CYCLIC AMIDES N-SUBSTITUTED WITH A HALOALKYLSULFONYLANILIDE GROUP” (FMC Corporation, priority 2021, published 2024).

The structures appear in SMILES notation.

Common to all, as to assay type: in vivo
Assay [1] relates to goosegrass (Eleusine indica). In words: Test C preemergence, goosegrass. As to conditions: 0 is no effect, 100 is complete control. In short, it runs like this: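 Herbicidal effect was estimated visually on a 0–100 scale 10 or 12 days after spraying. Formulation: non-phytotoxic solvent mixture with surfactant. Timing: directed soil spray after sowing, or postemergence on seedlings bearing one or two leaves.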

The test system of the next assay is soybean (Glycine max). In words: Test C preemergence, soybean. As to conditions: 0 is no effect, 100 is complete control. In short, it runs like this: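 Plants grown in a sand and loam soil blend received the formulated test chemicals either as a preemergence soil-directed spray or postemergence at 2 to 10 cm height. After 10 or 12 greenhouse days, injury was assessed visually, with 100 meaning complete control.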

For assay [2], the system named is galium (catchweed bedstraw, Galium aparine). In words: Test C postemergence, galium. Conditions: visual injury, 0 to 100 scale (0 no effect, 100 complete control).

Consider `Cc1c(N2CCC(OC3CCC3)C2=O)cc(N(C(=O)OCC(C)C)S(=O)(=O)C(F)(F)F)c(C)c1C` (centres unmarked) [Compound 48], for which the “Plant response rating (0 to 100 scale), Goosegrass” value (“Plant response rating … Goosegrass” below) in assay [1] (31 g ai/ha Preemergence) is reported as 80; in assay [1] (125 g ai/ha Preemergence), 100. For the same compound, the “Plant response rating (0 to 100 scale), Soybean” value (from here on “Plant response rating … Soybean”) in the assay on soybean (Glycine max) (31 g ai/ha Preemergence) is reported as 30; in the assay with soybean (Glycine max) (125 g ai/ha Preemergence), 70. For the same compound, the “Galium plant response rating” value is on record as 90 in assay [2] (31 g ai/ha Postemergence) and 100 in assay [2] (125 g ai/ha Postemergence).
Take `Cc1c(N2CCC(OC3CC3)C2=O)cc(N(COC(=O)C(C)(C)C)S(=O)(=O)C(F)(F)F)c(C)c1C` (centres unmarked) [Compound 49]: the “Plant response rating … Goosegrass” value in assay [1] (31 g ai/ha Preemergence) amounted to 60; in assay [1] (125 g ai/ha Preemergence), 90. For the same compound, the “Plant response rating … Soybean” value came out at 0 with soybean (Glycine max) (31 g ai/ha Preemergence) and 40 in the assay on soybean (Glycine max) (125 g ai/ha Preemergence). Also, the “Galium plant response rating” value in assay [2] (31 g ai/ha Postemergence) is listed as 80; in assay [2] (125 g ai/ha Postemergence), 90.
For `Cc1cc(C)c(N2CCC(OCC3CCC3(F)F)C2=O)cc1NS(=O)(=O)C(F)(F)F` (centres unmarked) [Compound 52], the “Plant response rating … Goosegrass” value is listed as 80 in assay [1] (31 g ai/ha Preemergence) and 100 in assay [1] (125 g ai/ha Preemergence). In addition, the “Plant response rating … Soybean” value amounted to 30 in the assay on soybean (Glycine max) (31 g ai/ha Preemergence) and 50 with soybean (Glycine max) (125 g ai/ha Preemergence). Also, the entries for the “Galium plant response rating” value in assay [2] (31 g ai/ha Postemergence) and in assay [2] (125 g ai/ha Postemergence) were 70 and 100, respectively.
On to `Cc1cc(C)c(N(COC(=O)C(C)(C)C)S(=O)(=O)C(F)(F)F)cc1N1CCC(OCC2CC2(F)F)C1=O` (centres unmarked) [Compound 54], for which the “Plant response rating … Goosegrass” value stood at 20 in assay [1] (31 g ai/ha Preemergence) and 100 in assay [1] (125 g ai/ha Preemergence). The “Plant response rating … Soybean” value in the assay on soybean (Glycine max) (31 g ai/ha Preemergence) came to 0; with soybean (Glycine max) (125 g ai/ha Preemergence), 30.
In the case of `Cc1cc(C)c(N(COC(=O)C(C)(C)C)S(=O)(=O)C(F)(F)F)cc1N1CCC(OCC2CC(F)(F)C2)C1=O` (centres unmarked) [Compound 55], the “Plant response rating … Goosegrass” value in assay [1] (31 g ai/ha Preemergence) was determined as 10; in assay [1] (125 g ai/ha Preemergence), 100. The “Plant response rating … Soybean” value in the assay with soybean (Glycine max) (31 g ai/ha Preemergence) and with soybean (Glycine max) (125 g ai/ha Preemergence) was 0 each time.
Consider `Cc1cc(C)c(N2CCC(OCC3CCCC3)C2=O)cc1NS(=O)(=O)C(F)(F)F` (centres unmarked) [Compound 57], for which the results for the “Plant response rating … Goosegrass” value in assay [1] (31 g ai/ha Preemergence) and in assay [1] (125 g ai/ha Preemergence) were 90 and 100, respectively. Also, the “Plant response rating … Soybean” value in the assay with soybean (Glycine max) (31 g ai/ha Preemergence) was 70; in the assay on soybean (Glycine max) (125 g ai/ha Preemergence), 90. The “Galium plant response rating” value in assay [2] (31 g ai/ha Postemergence) was determined as 50; in assay [2] (125 g ai/ha Postemergence), 90.
As to `C#CC(C)OC1CCN(c2cc(NS(=O)(=O)C(F)(F)F)c(C)cc2C)C1=O` (centres unmarked) [Compound 58], the “Plant response rating … Goosegrass” value in assay [1] (31 g ai/ha Preemergence) and in assay [1] (125 g ai/ha Preemergence) was 100 each time. The “Plant response rating … Soybean” value with soybean (Glycine max) (31 g ai/ha Preemergence) and with soybean (Glycine max) (125 g ai/ha Preemergence) was 100 throughout. Also, the “Galium plant response rating” value in assay [2] (31 g ai/ha Postemergence) and in assay [2] (125 g ai/ha Postemergence) was 90 in each case.
For the compound `C=C(C)COC1CCN(c2cc(NS(=O)(=O)C(F)(F)F)c(C)cc2C)C1=O` (centres unmarked) [Compound 59], the “Plant response rating … Goosegrass” value in assay [1] (31 g ai/ha Preemergence) was determined as 90; in assay [1] (125 g ai/ha Preemergence), 100. Moreover, the “Plant response rating … Soybean” value in the assay with soybean (Glycine max) (31 g ai/ha Preemergence) was 60; with soybean (Glycine max) (125 g ai/ha Preemergence) it was 90. In addition, the “Galium plant response rating” value in assay [2] (31 g ai/ha Postemergence) and in assay [2] (125 g ai/ha Postemergence) was 100 in each case.
For the compound `Cc1cc(C)c(N2CCC(OCc3ccccc3)C2=O)cc1NS(=O)(=O)C(F)(F)F` (centres unmarked) [Compound 61], the “Plant response rating … Goosegrass” value in assay [1] (31 g ai/ha Preemergence) and in assay [1] (125 g ai/ha Preemergence) was 100 each time. The “Plant response rating … Soybean” value in the assay with soybean (Glycine max) (31 g ai/ha Preemergence) came out at 40; with soybean (Glycine max) (125 g ai/ha Preemergence) it was 90. Also, the “Galium plant response rating” value in assay [2] (31 g ai/ha Postemergence) is given as 70; in assay [2] (125 g ai/ha Postemergence) it was 90.
For the compound `Cc1c(NS(=O)(=O)C(F)(F)F)cc(N2CCC(OCC3CC3)C2=O)c(C)c1F` (centres unmarked) [Compound 63], the “Plant response rating … Goosegrass” value in assay [1] (31 g ai/ha Preemergence) and in assay [1] (125 g ai/ha Preemergence) was 100 in each case. The “Plant response rating … Soybean” value is 60 in the assay on soybean (Glycine max) (31 g ai/ha Preemergence) and 100 with soybean (Glycine max) (125 g ai/ha Preemergence). The “Galium plant response rating” value in assay [2] (31 g ai/ha Postemergence) and in assay [2] (125 g ai/ha Postemergence) was 100 throughout.
In the case of `Cc1c(NS(=O)(=O)C(F)(F)F)cc(N2CCC(OCC3CCC3)C2=O)c(C)c1F` (centres unmarked) [Compound 64], the “Plant response rating … Goosegrass” value is reported as 70 in assay [1] (31 g ai/ha Preemergence) and 100 in assay [1] (125 g ai/ha Preemergence). Moreover, the entries for the “Plant response rating … Soybean” value in the assay with soybean (Glycine max) (31 g ai/ha Preemergence) and in the assay on soybean (Glycine max) (125 g ai/ha Preemergence) were 40 and 90, respectively. In addition, the “Galium plant response rating” value in assay [2] (31 g ai/ha Postemergence) and in assay [2] (125 g ai/ha Postemergence) was 100 in each case.
